Assay results from PubChem BioAssay AID1346 (Sanford-Burnham Center for Chemical Genomics, 2008).
Active and inactive are the calls of the source.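 The calls were made as follows: active = compounds whose cell survival under thapsigargin stays above the level of untreated control cells; inactive = the rest, which was every compound here.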

Tested on: PC12 rat cells, thapsigargin death, ATPlite luminescence, 24 h
Test: ER stress death rescue in rat PC12 cells – cell-based, undifferentiated PC12, rat pheochromocytoma, ATP luminescence, SAR follow-up (AID 1346)
Conditions: at 25 µM, stronger effect = higher value
[1] = measured here: survival at 0.25 uM thapsigargin
[2] = measured here: survival at 1 uM thapsigargin

Structure (SMILES) | survival | survival [1] | survival [2]
COc1ccc(C2CC(=O)C3=C(C2)Nc2ccccc2NC3c2cccc(Oc3ccccc3)c2)cc1OC (stereo not drawn) | 49% (inactive) | 29% | 28%
CSc1ccc(C2Nc3ccccc3NC3=C2C(=O)CC(c2ccccc2)C3)cc1 (stereo not drawn) | 31% (inactive) | 23% | 19%
CCOc1cc(C2Nc3ccccc3NC3=C2C(=O)CC(c2ccc(OC)cc2)C3)cc(Cl)c1O (stereo not drawn) | 26% (inactive) | 38% | 35%
COc1ccc(C2CC(=O)C3=C(C2)Nc2ccccc2NC3c2cc(C)ccc2C)cc1 (stereo not drawn) | 25% (inactive) | 27% | 26%
COc1ccc(C2CC(=O)C3=C(C2)Nc2ccccc2NC3c2cccc(C(F)(F)F)c2)cc1OC (stereo not drawn) | 26% (inactive) | 25% | 23%
CC1(C)CC(=O)C2=C(C1)Nc1ccccc1NC2c1ccc(-c2ccccc2)cc1 (stereo not drawn) | 37% (inactive) | 33% | 29%
COc1ccc(C2CC(=O)C3=C(C2)Nc2ccccc2NC3c2ccccc2C(F)(F)F)cc1OC (stereo not drawn) | 30% (inactive) | 26% | 24%
CCCOc1ccc(C2Nc3ccccc3NC3=C2C(=O)CC(c2ccc(OC)c(OC)c2)C3)cc1 (stereo not drawn) | 25% (inactive) | 28% | 26%
COc1ccc(C2CC(=O)C3=C(C2)Nc2ccccc2NC3c2cccc(Br)c2)cc1OC (stereo not drawn) | 31% (inactive) | 25% | 21%
CCOc1cccc(C2Nc3ccccc3NC3=C2C(=O)CC(c2ccc(OC)cc2)C3)c1 (stereo not drawn) | 30% (inactive) | 18% | 14%
O=C1CC(c2ccccc2)CC2=C1C(c1c(F)cccc1Cl)Nc1ccccc1N2 (stereo not drawn) | 22% (inactive) | 34% | 24%
